Laboratory results taken from US7521478B2, “Total synthesis of myriaporones” (Pharma Mar, S.A.U., priority 2002, dated 2009).

Experiments:
Type in all cases: cell-based
HeLa-APL = assay: Inhibition of cell growth by colorimetric SRB assay, HELA-APL; conditions: Homo sapiens, HELA-APL, 48 hours exposure; for CC50: cell killing, read-out: LC50 (the source's name); for GI50: read-out: GI50; for IC (total growth inhibition): read-out: TGI
In short: (§1)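 Absorbance of solubilized bound SRB (490 nm) quantified cell growth and viability after cells were exposed to compound for 48 h. Seeding was 5×10^3 cells per well in RPMI 1640/10% FBS, with 18 h attachment beforehand. GI, TGI and LC were calculated from means of triplicate wells.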

SK-MEL-28 = assay: Inhibition of cell growth by colorimetric SRB assay, MEL-28; conditions: Homo sapiens, SK-MEL-28, MEL-28, 48 hours exposure; for CC50: cell killing, read-out: LC50 (the source's name); for IC (total growth inhibition): read-out: TGI
In short: as §1

HeLa = assay: Inhibition of cell growth by colorimetric SRB assay, HELA; conditions: Homo sapiens, HELA, 48 hours exposure; for CC50: cell killing, read-out: LC50 (the source's name); for IC (total growth inhibition): read-out: TGI
In short: as §1

A-549 = assay: Inhibition of cell growth by colorimetric SRB assay, A-549; conditions: Homo sapiens, A549, A-549, 48 hours exposure; for CC50: cell killing, read-out: LC50 (the source's name); for IC (total growth inhibition): read-out: TGI
In short: as §1

SK-BR-3 = assay: Inhibition of cell growth by colorimetric SRB assay, SK-BR-3; conditions: SK-BR-3, 48 hours exposure; for GI50 / CC50: Homo sapiens; for CC50: cell killing, read-out: LC50 (the source's name); for TGI: total growth inhibition
In short: as §1

DU-145 = assay: Inhibition of cell growth by colorimetric SRB assay, DU-145; conditions: Homo sapiens, DU-145, 48 hours exposure; for CC50: cell killing, read-out: LC50 (the source's name); for IC (total growth inhibition): read-out: TGI
In short: as §1

IGROV = assay: Inhibition of cell growth by colorimetric SRB assay, IGROV; conditions: Homo sapiens, 48 hours exposure; for CC50: cell killing, read-out: LC50 (the source's name); for IC (total growth inhibition): read-out: TGI
In short: as §1

IGROV-ET = assay: Inhibition of cell growth by colorimetric SRB assay, IGROV-ET; conditions: Homo sapiens, IGROV-ET, 48 hours exposure; for CC50: cell killing, read-out: LC50 (the source's name); for IC (total growth inhibition): read-out: TGI
In short: as §1

K-562 = assay: Inhibition of cell growth by colorimetric SRB assay, K-562; conditions: Homo sapiens, K562, K-562, 48 hours exposure; for CC50: cell killing, read-out: LC50 (the source's name); for IC (total growth inhibition): read-out: TGI
From the text: (§2) The finality of these assays is to interrupt the growth of a “in vitro” tumor cell culture by means a continued exhibition of the cells to the sample to be testing.
(§3) Inhibition of Cell Growth by Colorimetric Assay.
(§4) A colorimetric type of assay, using sulforhodamine B (SRB) reaction has been adapted for a quantitative measurement of cell growth and viability (following the technique described by P. A. Skehan, et al., J. Natl. CancerInst. 1990, 82, 1107-1112).
(§5) This form of assay employs 96 well cell culture microplates of 9 mm diameter (T. Mosmann et al., J. of Immuological Methods 1983, 65, 55-63; G. T. Faircloth et al., J. of Tissue and Culture Methods 1988, 11, 201-205). Most of the cell lines are obtained from American Type Culture Collection (ATCC) derived from different human cancer types.
(§6) Cells are maintained in RPMI 1640 10% FBS, supplemented with 0.1 g/L penicillin and 0.1 g/L streptomycin sulfate and then incubated at 37° C., 5% CO2 and 98% humidity. For the experiments, cells were harvested from subconfluent cultures using trypsin and resuspended in fresh medium before plating.
(§7) Cells are seeded in 96 well microtiter plates, at 5×10^3 cells per well in aliquots of 195 μL medium, and they are allowed to attach to the plate surface by growing in drug free medium for 18 hours. Afterward, samples are added in aliquots of 5 μL in a ranging from 10 to 10^−8 μg/mL, dissolved in DMSO/EtOH/PBS (0.5:0.5:99). After 48 hours exposure, the antitumor effect are measured by the SRB methodology: cells are fixed by adding 50 μL of cold 50% (wt/vol) trichloroacetic acid (TCA) and incubated for 60 minutes at 4° C. Plates are washed with deionizer water and dried. One hundred μl of SRB solution (0.4% wt/vol in 1% acetic acid) is added to each microliter well and incubated for 10 minutes at room temperature. Unbound SRB is removed by washing with 1% acetic acid. Plates are air dried and bound stain is solubilized with Tris buffer. Optical densities are read on a automated spectrophotometric plate reader at a single wavelength of 490 nm.
(§8) The values for mean +/−SD of data from triplicate wells are calculated. Some parameters for cellular responses can be calculated: GI=growth inhibition, TGI=total growth inhibition (cytostatic effect) and LC=cell killing (cytotoxic effect).

LNCaP = assay: Inhibition of cell growth by colorimetric SRB assay, LN-caP; conditions: Homo sapiens, LN-caP, 48 hours exposure; for CC50: cell killing, read-out: LC50 (the source's name); for IC (total growth inhibition): read-out: TGI
From the text: as §2, §3, §4, §5, §6, §7, §8

PANC-1 = assay: Inhibition of cell growth by colorimetric SRB assay, PANC-1; conditions: Homo sapiens, PANC-1, 48 hours exposure; for CC50: cell killing, read-out: LC50 (the source's name); for IC (total growth inhibition): read-out: TGI
In short: as §1

LoVo-Dox = assay: Inhibition of cell growth by colorimetric SRB assay, LOVO-DOX; conditions: Homo sapiens, LOVO-DOX, 48 hours exposure; for LC50 (concentration for 50% cell killing): read-out: LC50; for IC (total growth inhibition): read-out: TGI
In short: as §1

LoVo = assay: Inhibition of cell growth by colorimetric SRB assay, LOVO; conditions: Homo sapiens, LOVO, 48 hours exposure; for LC50: cell killing, read-out: LC50; for IC (total growth inhibition): read-out: TGI
In short: as §1

HT-29 = assay: Inhibition of cell growth by colorimetric SRB assay, HT-29; conditions: Homo sapiens, HT-29, 48 hours exposure; for CC50: cell killing, read-out: LC50 (the source's name); for IC (total growth inhibition): read-out: TGI
In short: as §1

C/C=C\[C@H](C)[C@H]1O[C@@]1(C)[C@@H](O)[C@@H](COC(C)=O)C(=O)[C@H](CO)[C@@H](O)CC(=O)CC [Compound 47]
CC50 (HeLa-APL): 24.1 µM | GI50 (HeLa-APL): 0.0796 µM | IC (total growth inhibition) (HeLa-APL): 0.591 µM | GI50 (SK-MEL-28): 0.082 µM | CC50 (SK-MEL-28): 12.9 µM | IC (total growth inhibition) (SK-MEL-28): 0.984 µM | GI50 (HeLa): 0.0717 µM | CC50 (HeLa): 13.5 µM | IC (total growth inhibition) (HeLa): 0.434 µM | GI50 (A-549): 0.151 µM | CC50 (A-549): 23.2 µM | IC (total growth inhibition) (A-549): 1.12 µM | GI50 (SK-BR-3): 0.0231 µM | CC50 (SK-BR-3): 2.3 µM | TGI (SK-BR-3): 1.18E−07 Molar | GI50 (DU-145): 0.0815 µM | CC50 (DU-145): 24.1 µM | IC (total growth inhibition) (DU-145): 0.531 µM | GI50 (IGROV): 0.0639 µM | CC50 (IGROV): 24.1 µM | IC (total growth inhibition) (IGROV): 0.528 µM | GI50 (IGROV-ET): 0.152 µM | CC50 (IGROV-ET): 24.1 µM | IC (total growth inhibition) (IGROV-ET): 1.08 µM | GI50 (K-562): 0.294 µM | CC50 (K-562): 11.8 µM | IC (total growth inhibition) (K-562): 0.999 µM | GI50 (LNCaP): 0.0813 µM | CC50 (LNCaP): 8.88 µM | IC (total growth inhibition) (LNCaP): 0.536 µM | GI50 (PANC-1): 0.0905 µM | CC50 (PANC-1): 19.5 µM | IC (total growth inhibition) (PANC-1): 2.38 µM | GI50 (LoVo-Dox): 0.216 µM | LC50 (concentration for 50% cell killing) (LoVo-Dox): 24.1 µM | IC (total growth inhibition) (LoVo-Dox): 24.1 µM | GI50 (LoVo): 0.0403 µM | LC50 (LoVo): 17.7 µM | IC (total growth inhibition) (LoVo): 0.374 µM | GI50 (HT-29): 0.106 µM | CC50 (HT-29): 24.1 µM | IC (total growth inhibition) (HT-29): 3.11 µM

C/C=C\[C@H](C)[C@H]1OC1(C)[C@@H](O)[C@@H](CO)C(=O)[C@H](CO)[C@H](O)CC(=O)CC (stereo partly drawn) [3b + 4b]
CC50 (HeLa-APL): 26.8 µM | GI50 (HeLa-APL): 5.18 µM | IC (total growth inhibition) (HeLa-APL): 26.8 µM | GI50 (SK-MEL-28): 5.53 µM | CC50 (SK-MEL-28): 26.8 µM | IC (total growth inhibition) (SK-MEL-28): 26.8 µM | GI50 (HeLa): 8.73 µM | CC50 (HeLa): 26.8 µM | IC (total growth inhibition) (HeLa): 26.8 µM | GI50 (A-549): 26.8 µM | CC50 (A-549): 26.8 µM | IC (total growth inhibition) (A-549): 26.8 µM | GI50 (SK-BR-3): 5.07 µM | CC50 (SK-BR-3): 23.3 µM | TGI (SK-BR-3): 1.09E−05 Molar | GI50 (DU-145): 6.52 µM | CC50 (DU-145): 26.8 µM | IC (total growth inhibition) (DU-145): 26.8 µM | GI50 (IGROV): 5.96 µM | CC50 (IGROV): 26.8 µM | IC (total growth inhibition) (IGROV): 26.8 µM | GI50 (IGROV-ET): 6.55 µM | CC50 (IGROV-ET): 26.8 µM | IC (total growth inhibition) (IGROV-ET): 26.8 µM | GI50 (K-562): 14.2 µM | CC50 (K-562): 23.3 µM | IC (total growth inhibition) (K-562): 18.2 µM | GI50 (LNCaP): 9.29 µM | CC50 (LNCaP): 26.8 µM | IC (total growth inhibition) (LNCaP): 26.8 µM | GI50 (PANC-1): 26.8 µM | CC50 (PANC-1): 26.8 µM | IC (total growth inhibition) (PANC-1): 26.8 µM | GI50 (LoVo-Dox): 9.34 µM | LC50 (concentration for 50% cell killing) (LoVo-Dox): 26.8 µM | IC (total growth inhibition) (LoVo-Dox): 26.8 µM | GI50 (LoVo): 4.81 µM | LC50 (LoVo): 26.8 µM | IC (total growth inhibition) (LoVo): 12.6 µM | GI50 (HT-29): 22.1 µM | CC50 (HT-29): 26.8 µM | IC (total growth inhibition) (HT-29): 26.8 µM
